# From PubChem BioAssay (NCI)
#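 Five concentrations, 48 hours, 96-well plates. GI50 marks 50% less growth. TGI marks complete inhibition of growth.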
# Assays:
# Assay in all cases: NCI anticancer screen, dose series, 48 h
# EKVX NSCLC = system: EKVX NSCLC
# CAKI-1 renal = system: CAKI-1 renal
# HT29 colon = system: HT29 colon
# TK-10 renal = system: TK-10 renal
# SK-MEL-2 melanoma = system: SK-MEL-2 melanoma
# OVCAR-5 ovarian = system: OVCAR-5 ovarian
# NCI-H460 lung = system: NCI-H460 lung
# MDA-MB-231 breast = system: MDA-MB-231 breast
# UACC-257 melanoma = system: UACC-257 melanoma
# MDA-MB-435 = system: MDA-MB-435
# MALME-3M melanoma = system: MALME-3M melanoma
# MCF7 breast = system: MCF7 breast
# HOP-62 NSCLC = system: HOP-62 NSCLC
# RXF 393 renal = system: RXF 393 renal
# M14 melanoma = system: M14 melanoma
# OVCAR-8 ovarian = system: OVCAR-8 ovarian
# SK-MEL-5 melanoma = system: SK-MEL-5 melanoma
# CCRF-CEM leukemia = system: CCRF-CEM leukemia
# OVCAR-4 ovarian = system: OVCAR-4 ovarian
# A549 NSCLC = system: A549 NSCLC
# BT-549 breast = system: BT-549 breast
# NCI-H226 lung = system: NCI-H226 lung
# UACC-62 melanoma = system: UACC-62 melanoma
# DU-145 prostate = system: DU-145 prostate
# NCI-H23 lung = system: NCI-H23 lung
# SK-OV-3 ovarian = system: SK-OV-3 ovarian
# OVCAR-3 ovarian = system: OVCAR-3 ovarian
# SNB-75 CNS = system: SNB-75 CNS
# SNB-19 CNS = system: SNB-19 CNS
# NCI-H522 lung = system: NCI-H522 lung
# NCI/ADR-RES ovarian = system: NCI/ADR-RES ovarian
# HS 578T breast = system: HS 578T breast
# U251 CNS = system: U251 CNS
# LOX IMVI melanoma = system: LOX IMVI melanoma
# SF-295 CNS = system: SF-295 CNS
# A498 renal = system: A498 renal
# SN12C renal = system: SN12C renal
# ACHN renal = system: ACHN renal
# HCT-15 colon = system: HCT-15 colon
# RPMI-8226 leukemia = system: RPMI-8226 leukemia
# T-47D breast = system: T-47D breast
# SK-MEL-28 melanoma = system: SK-MEL-28 melanoma
# PC-3 prostate = system: PC-3 prostate
# SW-620 colon = system: SW-620 colon
# HCT-116 colon = system: HCT-116 colon
# IGROV1 ovarian = system: IGROV1 ovarian
# HOP-92 NSCLC = system: HOP-92 NSCLC
# UO-31 renal = system: UO-31 renal
# 786-0 renal = system: 786-0 renal
# COLO 205 colon = system: COLO 205 colon
# K-562 leukemia = system: K-562 leukemia
# SF-268 CNS = system: SF-268 CNS
# HCC-2998 colon = system: HCC-2998 colon
# MOLT-4 leukemia = system: MOLT-4 leukemia
# KM12 colon = system: KM12 colon
# HL-60(TB) leukemia = system: HL-60(TB) leukemia
# SF-539 CNS = system: SF-539 CNS
compound,measurement,setting,value
CCC1(c2ccc(N3C(=O)c4cccc5cc([N+](=O)[O-])cc(c45)C3=O)cc2)CCC(=O)NC1=O (configuration not stated),TGI,EKVX NSCLC,> 70500 nM
same,TGI,CAKI-1 renal,50.9 µM
same,TGI,HT29 colon,> 100000 nM
same,TGI,TK-10 renal,> 79100 nM
same,TGI,SK-MEL-2 melanoma,> 100 µM
same,TGI,OVCAR-5 ovarian,> 100 µM
same,TGI,NCI-H460 lung,> 50000 nM
same,TGI,MDA-MB-231 breast,21.4 µM
same,TGI,UACC-257 melanoma,> 100000 nM
same,TGI,MDA-MB-435,> 100000 nM
same,TGI,MALME-3M melanoma,92.2 µM
same,TGI,MCF7 breast,> 100000 nM
same,TGI,HOP-62 NSCLC,26.9 µM
same,TGI,RXF 393 renal,20.4 µM
same,TGI,M14 melanoma,> 100000 nM
same,TGI,OVCAR-8 ovarian,28 µM
same,TGI,SK-MEL-5 melanoma,> 100000 nM
same,TGI,CCRF-CEM leukemia,35 µM
same,TGI,OVCAR-4 ovarian,42.4 µM
same,TGI,A549 NSCLC,> 100 µM
same,TGI,BT-549 breast,38.6 µM
same,TGI,NCI-H226 lung,29 µM
same,TGI,UACC-62 melanoma,> 100000 nM
same,TGI,DU-145 prostate,> 69200 nM
same,TGI,NCI-H23 lung,> 66.2 µM
same,TGI,SK-OV-3 ovarian,39.5 µM
same,TGI,OVCAR-3 ovarian,56.5 µM
same,TGI,SNB-75 CNS,68 µM
same,TGI,SNB-19 CNS,> 74300 nM
same,TGI,NCI-H522 lung,35.1 µM
same,TGI,NCI/ADR-RES ovarian,79.8 µM
same,TGI,HS 578T breast,64.4 µM
same,TGI,U251 CNS,23.8 µM
same,TGI,LOX IMVI melanoma,> 70600 nM
same,TGI,SF-295 CNS,41.4 µM
same,TGI,A498 renal,97.8 µM
same,TGI,SN12C renal,24.8 µM
same,TGI,ACHN renal,43.5 µM
same,TGI,HCT-15 colon,> 100000 nM
same,TGI,RPMI-8226 leukemia,> 100 µM
same,TGI,T-47D breast,> 100 µM
same,TGI,SK-MEL-28 melanoma,86.8 µM
same,TGI,PC-3 prostate,> 100000 nM
same,TGI,SW-620 colon,> 100000 nM
same,TGI,HCT-116 colon,21.6 µM
same,TGI,IGROV1 ovarian,38.6 µM
same,TGI,HOP-92 NSCLC,8.8 µM
same,TGI,UO-31 renal,27.7 µM
same,TGI,786-0 renal,21.6 µM
same,TGI,COLO 205 colon,> 100000 nM
same,TGI,K-562 leukemia,> 100000 nM
same,TGI,SF-268 CNS,51.8 µM
same,TGI,HCC-2998 colon,> 88.6 µM
same,TGI,MOLT-4 leukemia,> 100000 nM
same,TGI,KM12 colon,> 100 µM
Cn1c(COC(=O)NCCn2ccnc2)nc2c(N3CCOCC3)nc(-c3ccccc3)nc21,GI50,EKVX NSCLC,1260 nM
same,TGI,EKVX NSCLC,2650 nM
same,GI50,CAKI-1 renal,0.343 µM
same,TGI,CAKI-1 renal,1.55 µM
same,GI50,HT29 colon,372 nM
same,TGI,HT29 colon,1470 nM
same,GI50,TK-10 renal,1070 nM
same,TGI,TK-10 renal,2410 nM
same,GI50,SK-MEL-2 melanoma,1680 nM
same,TGI,SK-MEL-2 melanoma,3.3 µM
same,GI50,OVCAR-5 ovarian,1390 nM
same,TGI,OVCAR-5 ovarian,3.01 µM
same,GI50,NCI-H460 lung,1420 nM
same,TGI,NCI-H460 lung,2910 nM
same,GI50,MDA-MB-231 breast,1060 nM
same,TGI,MDA-MB-231 breast,2.34 µM
same,GI50,UACC-257 melanoma,1280 nM
same,TGI,UACC-257 melanoma,2860 nM
same,GI50,MDA-MB-435,694 nM
same,TGI,MDA-MB-435,2080 nM
same,GI50,MALME-3M melanoma,1380 nM
same,TGI,MALME-3M melanoma,2.72 µM
same,GI50,MCF7 breast,356 nM
same,TGI,MCF7 breast,1890 nM
same,GI50,HOP-62 NSCLC,1540 nM
same,TGI,HOP-62 NSCLC,3.9 µM
same,GI50,RXF 393 renal,488 nM
same,TGI,RXF 393 renal,1.8 µM
same,GI50,M14 melanoma,561 nM
same,TGI,M14 melanoma,1920 nM
same,GI50,OVCAR-8 ovarian,913 nM
same,TGI,OVCAR-8 ovarian,2.63 µM
same,GI50,SK-MEL-5 melanoma,1460 nM
same,TGI,SK-MEL-5 melanoma,2810 nM
same,GI50,CCRF-CEM leukemia,254 nM
same,TGI,CCRF-CEM leukemia,1.44 µM
same,GI50,OVCAR-4 ovarian,692 nM
same,TGI,OVCAR-4 ovarian,1.97 µM
same,GI50,A549 NSCLC,1430 nM
same,TGI,A549 NSCLC,3.38 µM
same,GI50,BT-549 breast,737 nM
same,TGI,BT-549 breast,2.04 µM
same,GI50,NCI-H226 lung,1720 nM
same,TGI,NCI-H226 lung,3.6 µM
same,GI50,HL-60(TB) leukemia,615 nM
same,TGI,HL-60(TB) leukemia,2480 nM
same,GI50,UACC-62 melanoma,1230 nM
same,TGI,UACC-62 melanoma,2500 nM
same,GI50,DU-145 prostate,888 nM
same,TGI,DU-145 prostate,2130 nM
same,GI50,NCI-H23 lung,1520 nM
same,TGI,NCI-H23 lung,3.08 µM
same,GI50,SK-OV-3 ovarian,3630 nM
same,TGI,SK-OV-3 ovarian,10.6 µM
same,GI50,OVCAR-3 ovarian,174 nM
same,TGI,OVCAR-3 ovarian,0.367 µM
same,GI50,SNB-75 CNS,759 nM
same,TGI,SNB-75 CNS,2.15 µM
same,GI50,SNB-19 CNS,1380 nM
same,TGI,SNB-19 CNS,2690 nM
same,GI50,NCI-H522 lung,352 nM
same,TGI,NCI-H522 lung,1.56 µM
same,GI50,NCI/ADR-RES ovarian,1540 nM
same,TGI,NCI/ADR-RES ovarian,5.09 µM
same,GI50,HS 578T breast,1060 nM
same,TGI,HS 578T breast,3.59 µM
same,GI50,U251 CNS,1350 nM
same,TGI,U251 CNS,2.87 µM
same,GI50,LOX IMVI melanoma,152 nM
same,TGI,LOX IMVI melanoma,314 nM
same,GI50,SF-539 CNS,1170 nM
same,TGI,SF-539 CNS,2400 nM
same,GI50,SF-295 CNS,1540 nM
same,TGI,SF-295 CNS,2.89 µM
same,GI50,A498 renal,1250 nM
same,TGI,A498 renal,2.53 µM
same,GI50,SN12C renal,727 nM
same,TGI,SN12C renal,2.06 µM
same,GI50,ACHN renal,353 nM
same,TGI,ACHN renal,1.31 µM
same,GI50,HCT-15 colon,193 nM
same,TGI,HCT-15 colon,484 nM
same,GI50,RPMI-8226 leukemia,222 nM
same,TGI,RPMI-8226 leukemia,1.05 µM
same,GI50,T-47D breast,1430 nM
same,TGI,T-47D breast,4.17 µM
same,GI50,SK-MEL-28 melanoma,1330 nM
same,TGI,SK-MEL-28 melanoma,2.62 µM
same,GI50,PC-3 prostate,751 nM
same,TGI,PC-3 prostate,2140 nM
same,GI50,SW-620 colon,226 nM
same,TGI,SW-620 colon,580 nM
same,GI50,HCT-116 colon,136 nM
same,TGI,HCT-116 colon,0.351 µM
same,GI50,IGROV1 ovarian,657 nM
same,TGI,IGROV1 ovarian,1.94 µM
same,GI50,HOP-92 NSCLC,343 nM
same,TGI,HOP-92 NSCLC,1.72 µM
same,GI50,UO-31 renal,441 nM
same,TGI,UO-31 renal,1.74 µM
same,GI50,786-0 renal,720 nM
same,TGI,786-0 renal,2.1 µM
same,GI50,COLO 205 colon,1150 nM
same,TGI,COLO 205 colon,2970 nM
same,GI50,K-562 leukemia,347 nM
same,TGI,K-562 leukemia,2000 nM
same,GI50,SF-268 CNS,1290 nM
same,TGI,SF-268 CNS,2.66 µM
same,GI50,HCC-2998 colon,1410 nM
same,TGI,HCC-2998 colon,2.9 µM
same,GI50,MOLT-4 leukemia,441 nM
same,TGI,MOLT-4 leukemia,2410 nM
same,GI50,KM12 colon,1430 nM
same,TGI,KM12 colon,3.06 µM
COc1cccc(-c2cc(C(=O)Nc3ccc(/C=C/c4ccc(OC5CCN(C)CC5)cc4)cc3)ccc2OC)c1,GI50,CAKI-1 renal,10.6 µM
same,TGI,CAKI-1 renal,45.6 µM
same,GI50,OVCAR-8 ovarian,1960 nM
same,TGI,OVCAR-8 ovarian,4.59 µM
same,GI50,CCRF-CEM leukemia,1930 nM
same,TGI,CCRF-CEM leukemia,5.14 µM
same,GI50,NCI-H226 lung,2070 nM
same,TGI,NCI-H226 lung,5.04 µM
same,GI50,SK-OV-3 ovarian,2100 nM
same,TGI,SK-OV-3 ovarian,5.13 µM
same,GI50,A498 renal,1390 nM
same,TGI,A498 renal,3.8 µM
same,GI50,RPMI-8226 leukemia,2180 nM
same,TGI,RPMI-8226 leukemia,5.15 µM
same,GI50,T-47D breast,1700 nM
same,TGI,T-47D breast,4.98 µM
same,GI50,HCC-2998 colon,1830 nM
same,TGI,HCC-2998 colon,3.32 µM
